This experiment deals with trained experts. The experiment is described as follows: Monkfruit juice beverage taste comparison, trained experts. The note with it: 0.000001% cut of 1% 2,6-nonadienal in ethyl acetate, used at 0.10% in Monkfruit beverage (juice concentrate 0.15%); three trained experts. The method, then:
A taste comparison was conducted by combining and mixing 0.000001% cut of 1% 2,6-nonadienal (I % in ethanol) in ethyl acetate and used that dilution at 0.10% in a Monkfruit beverage in water, wherein Monkfruit juice concentrate was present at 0.15%. Three trained experts evaluated the combination against a control of Monkfruit juice without the taste modulation compound.

In the case of `CCC=CCCC=CC=O` [2,6-nonadienal], the “modulation of off-notes of Monkfruit juice versus control” value is recorded as “demonstrated a modulation of the off-notes”.

These data come from patent US11540542B2, “Taste modulating aldehydes” (TAKASAGO INTERNATIONAL CORPORATION, priority 2016, dated 2023).
